# In patent publication US10968193B2, “Antidiabetic bicyclic compounds” (Merck Sharp & Dohme Corp., priority 2014, dated 2021):
# Target: T1, human GPR40 (Homo sapiens, UniProt O14842)
# T1 construct: expressed in transfected cells; host or cells: HEK cells stably expressing the aequorin reporter
# Test: Inositol Phosphate Turnover (IP1) Assay 2
# Type: cell-based
# Conditions: HEK cells stably expressing human GPR40; 15,000 cells per well; compound acoustically transferred; CisBio IP-One kit
# Experimental: Human and mouse GPR40 stable cell-lines were generated in CHO cells stably expressing NFAT BLA (Beta-lactamase). A human GPR40 stable cell-line was generated in HEK cells stably expressing the aequorin expressing reporter. The expression plasmids were transfected using lipofectamine (Life Technologies) following manufacturer's instructions. Stable cell-lines were generated following drug selection.
# Inositol Phosphate Turnover (IP1) Assay 2:
# The assay was performed in 384-well format. HEK cells stably expressing human GPR40 were plated at 15,000 cells per well in growth medium (DMEM/10% fetal calf serum). Cell plates were then incubated 16 hours at 37 degrees in a 5% CO2 incubator.
# Measurement of Inositol Phosphate Turnover (IP1) was performed using the CisBio IP-One kit (Part number 62IPAPEB). After the 16 hour incubation, the cells were washed with HEPES buffer and 10 ul of stimulation buffer (prepared as described in the kit) was added to each well. In a separate plate, compounds were diluted in DMSO (400-fold over the final concentration in the assay well) and 25 nl was acoustically transferred to the appropriate well in the assay cell plate. The plates were then incubated for 60 minutes at 37 degrees. 10 ul of detection buffer (also prepared as described in the IP-One kit) was added to each well and the plates were incubated for 60 minutes in the dark. The plates were then read in a Perkin Elmer EnVision or equivalent reader able to measure FRET. Fluorescent ratio of emission at 665 and 620 nm was then converted to IP1 concentration by back calculating from an IP1 standard curve prepared at the time of the assay.
# T1 sequence (O14842 whole entry): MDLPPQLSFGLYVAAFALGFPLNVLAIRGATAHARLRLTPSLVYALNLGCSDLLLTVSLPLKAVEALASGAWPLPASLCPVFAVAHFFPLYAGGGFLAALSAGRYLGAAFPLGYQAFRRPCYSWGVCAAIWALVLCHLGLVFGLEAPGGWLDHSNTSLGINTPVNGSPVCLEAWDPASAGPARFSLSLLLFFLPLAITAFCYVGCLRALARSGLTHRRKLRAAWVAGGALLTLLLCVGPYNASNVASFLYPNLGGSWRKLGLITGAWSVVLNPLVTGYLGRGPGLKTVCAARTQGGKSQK
row,Compound,EC50
1,COc1cc(-c2ccc([C@@H]3CCc4ccc([C@H](C5CC5)[C@H](C)C(=O)O)cc4O3)cc2CN2CCCCC2(C)C)c(F)cn1 [Example 152],0.5 nM
2,CCOc1cc(-c2ccc(C3CCc4ccc([C@H](C5CC5)[C@H](C)C(=O)O)cc4O3)cc2CN(CC)CC)c(F)cn1 (mixture of isomers) [Example 76],8.2 nM
3,COc1cc(-c2ccc([C@@H]3CCc4ccc([C@H](C5CC5)[C@H](C)C(=O)O)cc4O3)cc2CN2CCCCC2)c(F)cn1 [Example 151],2 nM
4,COc1cc(-c2ccc(C3CCc4ccc([C@H](C5CC5)[C@H](C)C(=O)O)cc4O3)cc2CN2CC[C@H](S(C)(=O)=O)C2)c(F)cn1 (stereo partly shown) [Example 6],227 nM
5,COc1cc(-c2ccc(C3CCc4ccc([C@H](C5CC5)[C@H](C)C(=O)O)cc4O3)cc2CN2CCCCC2)c(F)cn1 (mixture of isomers) [Example 63],2.3 nM
6,COC[C@@H]1CCCN1Cc1cc([C@H]2CCc3ccc([C@H](C4CC4)[C@H](C)C(=O)O)cc3O2)ccc1-c1cc(OC)ncc1F [Example 135],5 nM
7,"COc1cc(-c2ccc(C3CCc4ccc([C@H](C5CCC5)[C@H](C)C(=O)O)cc4O3)cc2CN2CCCC2)c(F)cn1 (single isomer, unassigned) [Example 92]",4 nM
8,"COc1cc(-c2ccc(C3CCc4ccc([C@H](C5CC5)[C@H](C)C(=O)O)cc4O3)cc2CN2CCOCC2)c(F)cn1 (single isomer, unassigned) [Example 11b]",2.4 nM
9,COc1cc(-c2ccc(C3CCc4ccc([C@H](C5CC5)[C@H](C)C(=O)O)cc4O3)cc2CN(C2CC2)C2COC2)c(F)cn1 (mixture of isomers) [Example 53],1.7 nM
10,COc1cc(-c2ccc(C3CCc4ccc([C@H](C5CC5)[C@H](C)C(=O)O)cc4O3)cc2CN2CCC3(CCCO3)C2)c(F)cn1 (stereo partly shown) [Example 41],13 nM
11,COc1cc(-c2ccc(C3CCc4ccc([C@H](C5CC5)[C@H](C)C(=O)O)cc4O3)cc2CN2CCNCC2)c(F)cn1 (mixture of isomers) [Example 33],573 nM
12,COc1cc(-c2ccc(C3CCc4ccc([C@H](C5CC5)[C@H](C)C(=O)O)cc4O3)cc2CN(C)CC(F)(F)F)c(F)cn1 (stereo partly shown) [Example 20],0.84 nM
13,COc1cc(-c2ccc([C@@H]3CCc4ccc([C@H](C5CC5)[C@H](C)C(=O)O)cc4O3)cc2CN2CCCC[C@@H]2C)c(F)cn1 [Example 154],1.3 nM
14,"COc1cc(-c2ccc(C3CCc4ccc([C@H](C5CC5)[C@H](C)C(=O)O)cc4O3)cc2[C@@H](C)N(C)C)c(F)cn1 (stereo partly drawn) [Example 83, (2S,3R)-3-cyclopropyl-3-((R)-2-(3-((R)-1-(dimethylamino)ethyl)-4-(5-fluoro-2-methoxypyridin-4-yl)phenyl)chroman-7-yl)-2-methylpropanoic aid]",3 nM
15,"COc1cc(-c2ccc(C3CCc4ccc([C@H](C5CC5)[C@H](C)C(=O)O)cc4O3)cc2C(C)N2CCCC2)c(F)cn1 (stereo partly drawn) [Example 84, Methyl (2S,3R)-3-cyclopropyl-3-(2-(4-(5-fluoro-2-methoxypyridin-4-yl)-3-(1-(pyrrolidin-1-yl)ethyl)phenyl)chroman-7-yl)-2-methylpropanoic acid]",2 nM
16,"COc1cc(-c2ccc(C3CCc4ccc([C@H](C5CC5)[C@H](C)C(=O)O)cc4O3)cc2CN(C)CC(F)(F)F)c(F)cn1 (single isomer, unassigned) [Example 22]",0.46 nM
17,COc1cc(-c2ccc(C3CCc4ccc([C@H](C5CC5)[C@H](C)C(=O)O)cc4O3)cc2CN2CCC(OC)CC2)c(F)cn1 (mixture of isomers) [Example 45],12 nM
18,COc1cc(-c2ccc([C@@H]3CCc4ccc([C@H](C5CC5)[C@H](C)C(=O)O)cc4O3)cc2CN2C3CCC2CC3)c(F)cn1 [Example 162],5.4 nM
19,"COc1cc(-c2ccc(C3CCc4ccc([C@H](C5CC5)[C@H](C)C(=O)O)cc4O3)cc2CN2CC[C@H](C(F)(F)F)C2)c(F)cn1 (single isomer, unassigned) [Example 29]",0.8 nM
20,"COc1cc(-c2ccc(C3CCc4ccc([C@H](C5CCC5)[C@H](C)C(=O)O)cc4O3)cc2CN2CCCC2)c(F)cn1 (single isomer, unassigned) [Example 93]",2.9 nM
21,COc1cc(-c2ccc([C@H]3CCc4ccc([C@H](C5CC5)[C@H](C)C(=O)O)cc4O3)cc2CN2CCCC[C@H]2C)c(F)cn1 [Example 167],2.2 nM
22,"COc1cc(-c2ccc(C3CCc4ccc([C@H](C5CC5)[C@H](C)C(=O)O)cc4O3)cc2CN2CC[C@H](C(F)(F)F)C2)c(F)cn1 (single isomer, unassigned) [Example 30]",1.5 nM

row,Compound,EC50
1,COc1cc(-c2ccc([C@@H]3CCc4ccc([C@H](C5CC5)[C@H](C)C(=O)O)cc4O3)cc2CN2CCC[C@@H]2C)c(F)cn1 [Example 140],1.8 nM
2,COc1cc(-c2ccc([C@@H]3CCc4ccc([C@H](C5CC5)[C@H](C)C(=O)O)cc4O3)cc2CN2CCCC2(C)C)c(F)cn1 [Example 160],2.5 nM
3,"COc1cc(-c2cc(F)c(C3CCc4ccc([C@H](C5CC5)[C@H](C)C(=O)O)cc4O3)cc2CN2CCCC2)ccn1 (stereo partly drawn) [Example 180, 1RS, (2S, 3R)-3-cyclopropyl-3-(2-(2-fluoro-4-(2-methoxypyridin-4-yl)-5-(pyrrolidin-1-ylmethyl)phenyl)chroman-7-yl)-2-methylpropanoic acid]",41 nM
4,COc1cc(-c2ccc(C3CCc4ccc([C@H](C5CC5)[C@H](C)C(=O)O)cc4O3)cc2CN2C3CCC2COC3)c(F)cn1 (stereo partly shown) [Example 68],0.7 nM
5,"COc1cc(-c2ccc(C3CCc4ccc([C@H](C5CC5)[C@H](C)C(=O)O)cc4O3)cc2CN2CC[C@@H](C(F)(F)F)C2)c(F)cn1 (single isomer, unassigned) [Example 27]",1.5 nM
6,COc1cc(-c2ccc(C3CCc4ccc([C@H](C5CC5)[C@H](C)C(=O)O)cc4O3)cc2CN2CC[C@@H](O)C2)c(F)cn1 (stereo partly shown) [Example 8],238 nM
7,"COC[C@@H]1CCCN1Cc1cc([C@@H]2CCc3ccc([C@H](C4CC4)[C@H](C)C(=O)O)cc3O2)ccc1-c1cc(OC)ncc1F [Example 134, (2S, 3R)-3-cyclopropyl-3-((S)-2-(4-(5-fluoro-2-methoxypyridin-4-yl)-3-(((S)-2-(methoxymethyl)pyrrolidin-1-yl)methyl)phenyl)chroman-7-yl)-2-methylpropanoic acid]",0.8 nM
8,"COc1cc(-c2ccc(C3CCc4ccc([C@H](C5CC5)[C@H](C)C(=O)O)cc4O3)cc2CN2CCC(F)(F)C2)c(F)cn1 (single isomer, unassigned) [Example 31]",0.95 nM
9,"COc1cc(-c2ccc(C3CCc4ccc([C@H](C5CC5)[C@H](C)C(=O)O)cc4O3)cc2CN2CCOCC2)c(F)cn1 (single isomer, unassigned) [Example 11a]",1.7 nM
10,COc1cc(-c2ccc(C3CCc4ccc([C@H](C5CC5)[C@H](C)C(=O)O)cc4O3)cc2CN2CC(F)C2)c(F)cn1 (mixture of isomers) [Example 47],3.5 nM
11,COc1cc(-c2ccc(C3CCc4ccc([C@H](C5CC5)[C@H](C)C(=O)O)cc4O3)cc2CN2CC(C)(C#N)C2)c(F)cn1 (mixture of isomers) [Example 67],15 nM
12,COc1cc(-c2ccc([C@H]3CCc4ccc([C@H](C5CC5)[C@H](C)C(=O)O)cc4O3)cc2CN2CCC2(C)C)c(F)cn1 [Example 156],8.3 nM
13,"COc1cc(-c2ncc(C3CCc4ccc([C@H](C5CC5)[C@H](C)C(=O)O)cc4O3)nc2CN2CCCC2)c(F)cn1 (stereo partly drawn) [Example 110, (2S,3R)-3-cyclopropyl-3-(2-(5-(5-fluoro-2-methoxypyridin-4-yl)-6-(pyrrolidin-1-ylmethyl)pyrazin-2-yl)chroman-7-yl)-2-methylpropanoic acid]",824 nM
14,COc1cc(-c2ccc(C3CCc4ccc([C@H](C5CC5)[C@H](C)C(=O)O)cc4O3)cc2CN2CCOC3(CC3)C2)c(F)cn1 (mixture of isomers) [Example 42],3.1 nM
15,"COc1cc(-c2ccc(C3CCc4ccc([C@H](C5CC5)[C@H](C)C(=O)O)cc4O3)cc2CN2CC[C@@H](F)C2)c(F)cn1 (single isomer, unassigned) [Example 23]",1.7 nM
16,COc1cc(-c2ccc(C3CCc4ccc([C@H](C5CC5)[C@H](C)C(=O)O)cc4O3)cc2CN2CC[C@@H](OC)C2)c(F)cn1 (stereo partly shown) [Example 18],11 nM
17,COC[C@H]1CCCN1Cc1cc([C@@H]2CCc3ccc([C@H](C4CC4)[C@H](C)C(=O)O)cc3O2)ccc1-c1cc(OC)ncc1F [Example 164],1.6 nM
18,COc1cc(-c2ccc([C@@H]3CCc4ccc([C@H](C5CC5)[C@H](C)C(=O)O)cc4O3)cc2CN2CCCC(C)(C)C2)c(F)cn1 [Example 143],0.3 nM
19,CCN(CC)Cc1cc([C@@H]2CCc3ccc([C@H](C4CC4)[C@H](C)C(=O)O)cc3O2)ccc1-c1cc(OC)ncc1F [Example 159],3.3 nM
20,"COc1cc(-c2ccc(C3CCc4ccc([C@H](C5CCC5)[C@H](C)C(=O)O)cc4O3)cc2CN(C)C)c(F)cn1 (single isomer, unassigned) [Example 94]",1.8 nM
21,COc1cc(-c2ccc(C3CCc4ccc([C@H](C5CC5)[C@H](C)C(=O)O)cc4O3)cc2CN2CCCC2(C)C)c(F)cn1 (mixture of isomers) [Example 66],0.65 nM
